Here are results for one compound from patent US8048927B2 (Besins Healthcare Luxembourg, priority 2004, dated 2011).

The conditions of this series: human, in vivo.

Experimental: The patients received [^3H]-labeled drug applied directly on the affected breasts at specified intervals ranging from 12 hours to 7 days before surgery to excise diseased tissue. Breast tissue from three regions: the tumor, tissue immediately surrounding the tumor, and normal tissue, was excised and immediately frozen in liquid nitrogen. Additionally, plasma and urine samples were obtained at scheduled intervals and frozen until analysis.

On to `CCC(=C(c1ccc(O)cc1)c1ccc(OCCN(C)C)cc1)c1ccccc1` [4-hydroxy tamoxifen, 1-[4-(2-N-dimethylaminoethoxy)phenyl]-1-(4-hydroxyphenyl)-2-phenylbut-1-ene], for which the “metabolism in cytosolic and nuclear fractions of breast tissue” value is recorded as “remained unmetabolized except for limited isomerization from the Z to the E form”; the “retention in the breast” value was “approximately 4 days”; the “subcellular distribution in breast tissue” value was “concentrated predominantly in the cytosolic and nuclear fractions of breast tissue”.
